Patent US5705649A, “Protein staining compositions and methods” (Promega Corporation, priority 1995, dated 1998)

What was measured:
[1] = tested on: Promega Mid-Range Molecular Weight Standards; test: Post-electrophoretic detection of protein using NBODY derivatives; conditions: crude dye solution in 5% acetic acid, 20% ethanol, one hour
Method: Promega Mid-Range Molecular Weight Standards were diluted and heated as described in Example 27 to produce solutions containing 125, 25, 5 and 1 ng of protein per band in 10 microliters of solution. A 10% Tris Glycine, precast polyacrylamid gel from Novex Corp. (San Diego, Calif., USA, Cat. No. EC 6075.) was loaded with 10 microliters of the just described, diluted molecular weight standard solutions in lanes so that two lanes, each with the same diluted standard solution, were separated by a blank lane. The gel was developed using conditions recommended by the manufacturer and following development, the gel was cut in the blank lane. The segments were placed in 50 ml of 5% acetic acid, 20% ethanol. Six hundred microliters of the NBODY-C12 reaction mixture from Example 40 was added to the solution with one of the segments of a pair (of lanes with the same protein molecular weight standard solution) and three hundred microliters of the NBODY-C16 reaction mixture from Example 40 was added to the solution with the other segment of the same pair. After one hour of incubation, the gel segments were photographed on a transilluminator as described in example 27. Protein bands were detected in the lanes containing the 125 and 25 ng of protein per band using this method and the crude dye solutions from Example 40.

[2] = tested on: Promega Mid Range Molecular Weight Standards; test: Post-electrophoretic staining of gels with octyl and dodecyl derivatives of MDPF
Method: A fifteen well, 12% gel was made as described in example 5 and was loaded with diluted Promega Mid Range Molecular Weight Standards to produce lanes containing samples having 200, 100, 80, 60, 40, 20 and 10 ng of protein per band. The gel was run as described in example 5 except that Promega Green 1 was not added to the cathode buffer. After electrophoresis, the gel was cut between lanes to produce gel segments containing fractionated protein samples at each of the concentrations listed above and these were placed in 30% methanol for 25-30 min at room temperature. The stock stain solutions of Example 33 were then diluted into distilled water at a concentration of 0.5% (v/v), and 50 ml of these solutions were used to stain the gels. After 1 hr incubation, the gels were visualized and photographed using a transilluminator. […] The gels were then placed in 5% methanol and allowed to destain overnight.
After overnight destaining, the gel segments were again placed upon a transilluminator, visualized and photographed. […] Nonetheless, these derivatives can be used for sensitive post-electrophoretic staining of proteins in gels.

[3] = tested on: Promega Mid Range Molecular Weight Standards; test: In-gel staining with octyl and dodecyl derivatives of MDPF; conditions: stain stock in cathode buffer and wells
Method: (§1) Two 10-well, 12% gels were made as described in Example 5 and were loaded with diluted Promega Mid Range Molecular Weight Standards to produce lanes containing 200, 100, 80, 60, 40, 20, 10, and 5 ng of protein per band following fractionation by electrophoresis. These protein levels were applied to the gels in 10 μl of loading buffer described in Example 5 and then 10 μl of a 1:100 dilution of the derivative stock solution (Example 33) into a solution of 20% glycerol, 1% sodium dodecyl sulfate was added to the wells. The gels were then run as described in Example 5 except that 0.5 ml of derivative stain stock was added to the cathode buffer in the gel and the Promega Green 1 dye was omitted from the solution. The gels were placed on a transilluminator following electrophoresis and were observed visually and photographed as described above. Staining of the protein bands was seen down to 80 ng of protein per band for the dodecyl derivative for all proteins and, for the 31 kdalton standard (carbonic anhydrase) down to 60 ng/band. Staining of the bands was seen to 60 ng/band for all proteins with the octyl derivative, with the carbonic anhydrase being detectable down to 40 ng per band. Therefore both stains can be used for in-gel staining of proteins.

carbonic anhydrase = test: as above; conditions: 31 kdalton standard; stain stock in cathode buffer and wells
Method: as §1

[4] = tested on: Promega Mid Range Molecular Weight Standards; test: Detection of fractionated protein in SDS-PAGE gels using dansyl derivatives made in acetone
Method: Several 15-well, SDS-PAGE minigels were poured as described in Example 27 and loaded with Promega Mid Range Molecular Weight Standards diluted as described in Example 27 to provide samples containing 1000, 300, 100, 50, 25, 12.5, and 6.25ng of each protein per band in separate lanes of the gel. The samples were fractionated by application of 20 mA per gel until the tracking dye reached the bottom of the gel. All the gels were placed in 10% trichloroacetic acid for 5 min and then incubated for 10 min in 10% (v/v) methanol. The gels were then incubated in a 10% methanol solution containing 2% (v/v) of the derivative eluates (dissolved in 50 ml ethanol) described in Example 28. The gels were transferred to a transilluminator and both visualized and photographed after two hours of staining. The following observations were made. Only the lanes containing 1000 and 300ng of protein per band were visible in the gel incubated with the n-butyl dansyl derivative. The lanes containing the 1000, 300, 100, 50, 25ng per band were visible in the gel incubated with the n-hexyl derivative as were some of the bands in the 12.5 ng per band lane.
After overnight incubation in the stain solutions, the gels were re-observed and rephotographed.
The gels were then placed in 1% acetic acid to remove any unbound stain and rephotographed after three hours of incubation in this solution at room temperature.

[5] = tested on: Promega Mid Range Molecular Weight standard; test: Optimization of staining with dodecyl dansyl stain, acetic acid/ethanol fixing and staining
Method: Two 12% SDS-PAGE gels were run with diluted Promega Mid Range Molecular Weight standard to produce samples of proteins at 20, 10, and 5 ng of protein per band present in the gels. The gels were made as in Example 27 and proteins were fractionated on the gels in a BioRad Miniprotean II gel system as recommended by the manufacturer. The gels were cut to produce segments of gel containing three lanes of samples containing one lane each of the protein concentrations described above and placed for 15 min in 50 ml of one of the following fixative solutions: 30% ethanol, 20% acetic acid; 40% ethanol, 10% acetic acid; 40% ethanol, 20% acetic acid; 50% ethanol, 10% acetic acid; and 50% ethanol, 20% acetic acid. After the 15 min incubation, the gels were transferred into another 50 ml of the same fixative solution containing 50 μl of dodecyl dansyl stain solution (in 50 ml ethanol, Example 28). After 3 hrs., the segments were placed in 50 ml of 50 mM Tris-Cl, pH8.0, for 5 min and then were visualized on a transilluminator and photographed.
After visualization, the segments were returned to their respective staining solutions and allowed to incubate overnight. The following morning, the segments were visualized and photographed directly on a transilluminator without prior incubation in a different solution.

[6] = tested on: Promega Mid Range Molecular Weight Standards; test: Post-electrophoretic detection of protein with purified dansyl derivatives
Method: Samples of the eluates from purification of the derivatives were diluted 20-fold with ethanol and the absorption of the resulting solutions from 400 to 220 nm was measured. The absorption of the solutions at 328 nm was used as an indication of the concentration of the derivative in the staining studies in Example 27.
Several SDS-PAGE minigels were made as described in Experiments with Gene Fusions, Silhavy, Berman, Enquist, supra, using the SDS concentrations described by the authors. Samples of Promega Mid Range Molecular Weight Standards were diluted into the loading solution described in the reference above to produce solutions containing 200, 100, 50, 25, and 12.5 ng of each protein species in 10 μl of solution. These solutions were loaded onto the gels and the samples were fractionated in the gels by application of 10 mA per gel until the tracking dye for the samples reached the bottom of the gel. The gels were then rinsed 1 min in distilled water, 15 min in 10% trichloracetic acid (w/v), and then for 15 min in 10% methanol (v/v). The gel segments, approximately 5×6 cm containing the fractionated standard, were then transferred to a 2% ethanol solution (50 ml) containing 0.05 OD328 -equivalent of each of the dansyl derivatives (see Example 26).
The gel segments were returned to their respective staining solutions and were incubated overnight. The following morning, all of the gel segments were again visualized on the transilluminator and photographed as described above. […] In general, relatively equivalent staining of bands was obtained as determined by the strength of the fluorescent signal observed for the various fractionated species.

[7] = tested on: Promega Mid-Range Molecular Weight Markers; test: In-gel staining with dodecyl dansyl stain; conditions: 0.1% (v/v) stain in cathode buffer
Method: In order to determine if in-gel staining with dodecyl dansyl stain could be performed, a gel containing the concentrations of reagents in the gel buffers and running buffers listed in Example 5 was made and run as described in Example 5 with two exceptions: 1) dodecyl dansyl stain (in 50 ml ethanol, Example 28) was added to the cathode buffer at 0.1% (v/v) instead of Promega Green 1; 2) Promega Mid-Range Molecular Weight markers were diluted into 1× loading buffer as described in Example 5 and were loaded on the gel to produce lanes containing each protein at concentrations from 1000 ng/lane to 3.1 ng/lane. Following electrophoresis, the gel was placed directly on a transilluminator and visualized and photographed as described above. […] Thus, staining while the gel is running can be performed with the dodecyl dansyl stain and is particularly favorable for protein species with low mobilities.

[8] = tested on: Promega Mid-Range Molecular Weight Standards; test: Optimization of post-electrophoretic staining with dodecyl dansyl stain
Method: In order to determine if alternative staining conditions would improve the detection of protein by fluorescent staining with the dodecyl dansyl stain, the following experiment was performed. Two 12% SDS-PAGE minigels from Bio-Rad Corporation were used to fractionate samples of diluted Promega Mid-Range Molecular Weight Standards which were loaded into alternate lanes of the gel to produce protein bands containing 25 and 5 ng of each protein per band in adjacent lanes. The gels were run as recommended by the manufacturer in Bio-Rad Miniprotean II electrophoresis units and sliced to produce two lane segments containing one lane each of the 25 and 5 ng sample lanes. One slice was placed in each of the following solutions (50 ml) followed by incubation of the segment in a second 50 ml of the solution containing 200 μl of dodecyl dansyl derivative solution (in 50 ml ethanol) of Example 28: distilled water; 1% acetic acid; 1% trichloroacetic acid; 5M sodium chloride; 0.5M Tris base; 0.5M ammonium bicarbonate, pH 5.0; 2M Tris pH8.0; 0.05M sodium hydroxide; and 10% ethanol. The gels were allowed to stain overnight at room temperature and then were observed on a transilluminator to allow visualization and photography of the fluorescently stained bands as described in Example 27. […] It was thought that this is due to an inability of the particular stain derivative used to fluoresce under the highly acidic condition produced in the trichloroacetic acid solution.
In order to determine if the stain remained intact in these solutions and to standardize the conditions for the stains, the gel segments were then incubated in 50 ml of distilled water. After 1 hr, the segments were re-observed and re-photographed. […] Thus, staining sensitivity is dependent upon staining conditions and mildly acidic conditions appear to improve the sensitivity of staining.

[9] = after overnight destaining in 5% methanol

## CCCCCCCCCCCCCCCCNC(=O)CCCCCNc1ccc([N+](=O)[O-])c2nonc12 [NBODY-C16]
[1]
  lowest protein per band detected: 25 ng

## CCCCCCCCCCCCN=C1C(c2ccccc2)=COC1(OC)c1ccccc1 (stereo not drawn) [dodecyl MDPF derivative]
[2]; [9]
  lowest protein per band stained: 20 ng
[3]
  lowest protein per band stained, all proteins: 80 ng
Carbonic anhydrase
  lowest carbonic anhydrase per band stained: 60 ng

## CCCCCCCCCCCCNS(=O)(=O)c1cccc2c(N(C)C)cccc12 [dodecyl dansyl derivative]
[4]; 2% (v/v) eluate in 10% methanol, two hours of staining
  lowest protein per band visible: 300 ng
[4]; after 1% acetic acid, three hours
  protein per band at which most of the protein species were visible: 6.25 ng
[4]; overnight staining
  protein per band at which at least some of the bands could be visualized: 12.5 ng
[5]; 3 hrs, 30 or 40% ethanol and 10 or 20% acetic acid, 20, 10, 5 ng per band
  visibility of protein bands: faintly visible
[5]; overnight staining in ethanol/acetic acid
  level of protein per band detected: ≤ 5 ng
[6]
  staining quality compared to the amino or butyl derivatives: much better stains compared to the amino or butyl derivatives
[6]; 15 min staining
  lowest protein amount with visible bands (several of the bands): 100 ng
[6]; overnight staining
  visibility of protein bands: easily visible
[7]
  detection of protein species migrating more than halfway through the gel: not easily detected
  lowest protein per band seen (many of the heavier molecular weight species): 12.5 ng
[8]; all other staining solutions, overnight
  staining: No other staining solution allowed visualization of the fractionated protein species at this point
[8]; stain in 0.5M ammonium bicarbonate, pH 5.0, overnight
  protein per band displayed as fluorescent bands: 25 ng
[8]; stain in 1% acetic acid, overnight
  protein per band displayed as fluorescent bands: 25 ng
[8]; stain in 1% trichloroacetic acid, overnight
  staining: neither protein detection nor background staining
[8]; stain in 2M Tris pH 8.0, overnight
  staining: much weaker staining
[8]; stained in 0.5M ammonium bicarbonate, pH 5.0, then 1 hr water
  staining after distilled water: Staining was seen
[8]; stained in 1% acetic acid, then 1 hr water
  staining after distilled water: greater fluorescence
[8]; stained in 1% trichloroacetic acid, then 1 hr water
  staining after distilled water: greater fluorescence
[8]; stained in 2M Tris pH 8.0, then 1 hr water
  staining after distilled water: Staining was seen

## CCCCCCCCN=C1C(c2ccccc2)=COC1(OC)c1ccccc1 (stereo not drawn) [octyl MDPF derivative]
[2]; 0.5% (v/v) stain in water, 1 hr
  lowest protein per band stained (most of the species): 20 ng
[2]; [9]
  retention of fluorescent staining: almost all of the fluorescent staining of the octyl MDPF derivative stained gel had been lost
[3]
  lowest protein per band stained, all proteins: 60 ng
Carbonic anhydrase
  lowest carbonic anhydrase per band stained: 40 ng
